Source: the supplement of paper PMC10307832

Columns and labels:
Experiment in all cases: relative viability (nuclei count vs DMSO), 5 days (fraction); higher = more cells survive
Sunitinib + Dasatinib = compound: CCN(CC)CCNC(=O)c1c(C)[nH]c(/C=C2\C(=O)Nc3ccc(F)cc32)c1C [Sunitinib] + Cc1nc(Nc2ncc(C(=O)Nc3c(C)cccc3Cl)s2)cc(N2CCN(CCO)CC2)n1 [Dasatinib] (partner 0.075 µM)
How it was run: (§1)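 Relative viability equals treated-well nuclei counts divided by vehicle-well nuclei counts. Counts came from 4× images of lung cancer cell lines grown in 1536-well plates for 5 days after pin-tool dosing on the day after seeding. Dosing used one drug alone or a fixed anchor-drug dose plus five library-drug doses (not always all listed) in √10 steps, and values are medians of duplicate plates.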

Sunitinib + Luminespib = compound: CCN(CC)CCNC(=O)c1c(C)[nH]c(/C=C2\C(=O)Nc3ccc(F)cc32)c1C [Sunitinib] + CCNC(=O)c1noc(-c2cc(C(C)C)c(O)cc2O)c1-c1ccc(CN2CCOCC2)cc1 [Luminespib] (partner 0.01 µM)
How it was run: as §1

Sunitinib + Bortezomib = compound: CCN(CC)CCNC(=O)c1c(C)[nH]c(/C=C2\C(=O)Nc3ccc(F)cc32)c1C [Sunitinib] + CC(C)C[C@H](NC(=O)[C@H](Cc1ccccc1)NC(=O)c1cnccn1)B(O)O [Bortezomib] (partner 0.002 µM)
How it was run: as §1

Sunitinib + Navitoclax = compound: CCN(CC)CCNC(=O)c1c(C)[nH]c(/C=C2\C(=O)Nc3ccc(F)cc32)c1C [Sunitinib] + CC1(C)CCC(c2ccc(Cl)cc2)=C(CN2CCN(c3ccc(C(=O)NS(=O)(=O)c4ccc(N[C@H](CCN5CCOCC5)CSc5ccccc5)c(S(=O)(=O)C(F)(F)F)c4)cc3)CC2)C1 [Navitoclax] (partner 0.5 µM)
How it was run: as §1

Cell Line | relative viability (Sunitinib + Dasatinib; first compound 0.02 µM) | relative viability (Sunitinib + Dasatinib; first compound 0.06325 µM) | relative viability (Sunitinib + Dasatinib; first compound 0.2 µM) | relative viability (Sunitinib + Dasatinib; first compound 0.6325 µM) | relative viability (Sunitinib + Dasatinib; first compound 2 µM) | relative viability (Sunitinib + Luminespib; first compound 0.02 µM) | relative viability (Sunitinib + Luminespib; first compound 0.06325 µM) | relative viability (Sunitinib + Luminespib; first compound 0.2 µM) | relative viability (Sunitinib + Luminespib; first compound 2 µM) | relative viability (Sunitinib + Bortezomib; first compound 0.02 µM) | relative viability (Sunitinib + Bortezomib; first compound 0.06325 µM) | relative viability (Sunitinib + Bortezomib; first compound 0.2 µM) | relative viability (Sunitinib + Bortezomib; first compound 0.6325 µM) | relative viability (Sunitinib + Bortezomib; first compound 2 µM) | relative viability (Sunitinib + Navitoclax; first compound 0.02 µM) | relative viability (Sunitinib + Navitoclax; first compound 0.06325 µM) | relative viability (Sunitinib + Navitoclax; first compound 0.2 µM) | relative viability (Sunitinib + Navitoclax; first compound 0.6325 µM) | relative viability (Sunitinib + Navitoclax; first compound 2 µM) | relative viability (Sunitinib + Luminespib; first compound 0.6325 µM)
LXF-289 | 0.248 | 0.25 | 0.237 | 0.204 | 0.271 | 0.635 | 0.734 | 0.89 | 0.651 | 0.981 | 0.958 | 1.06 | 1.04 | 1.01 | 0.93 | 0.94 | 1 | 0.945 | 0.915 | 
NCI-H23 | 0.658 | 0.787 | 0.959 | 0.955 | 0.794 | 0.214 | 0.229 | 0.204 | 0.21 | 0.871 | 1.45 | 1.17 | 1.44 | 0.945 | 0.806 | 0.879 | 0.899 | 1.07 | 0.66 | 0.214
NCI-H322M | 0.257 | 0.264 | 0.293 | 0.265 | 0.253 |  | 0.859 | 0.966 | 0.616 | 1.19 | 1.35 | 1.52 | 1.42 | 1.35 | 1.25 | 1.18 | 1.3 | 1.25 | 1.34 | 0.948
NCI-H441 | 0.545 | 0.684 | 0.714 | 0.763 | 0.658 | 0.32 | 0.275 | 0.332 | 0.339 |  | 1.05 | 0.533 | 0.281 | 0.558 |  | 0.684 | 0.946 | 0.808 | 0.368 | 0.396
NCI-H460 | 0.471 | 0.631 | 0.676 | 0.602 | 0.444 | 0.0352 | 0.0388 | 0.0351 | 0.0318 | 1.18 | 1.23 | 1.5 | 1.35 | 1.09 | 0.862 | 1.19 | 1.37 | 1.41 | 1.08 | 0.0528
NCI-H520 | 0.226 | 0.186 | 0.18 | 0.224 | 0.217 | 0.22 | 0.231 | 0.214 | 0.228 | 0.738 | 0.785 | 0.638 | 0.783 | 0.819 |  | 1.11 | 1.21 | 1.02 | 0.897 | 0.22
NCI-H596 | 0.599 | 0.731 | 0.709 | 0.709 | 0.467 | 0.884 | 1.05 | 1.09 | 0.941 | 0.996 | 1.16 | 0.999 | 1.08 | 1.33 | 0.987 | 0.802 | 1.14 | 0.945 | 0.956 | 1.03
NCI-H647 | 0.164 | 0.291 | 0.228 | 0.183 | 0.161 | 0.232 | 0.143 | 0.131 | 0.154 | 0.936 | 1.29 | 1.4 | 1.03 | 0.923 | 0.988 | 1.18 |  | 1.24 | 1.22 | 0.137
NCI-H727 | 0.343 | 0.432 | 0.472 | 0.404 | 0.275 | 0.429 | 0.498 | 0.456 | 0.313 | 0.89 | 1.07 | 0.805 | 1.05 | 0.817 | 0.433 | 0.45 | 0.454 | 0.523 | 0.396 | 0.457
NCI-H838 | 0.324 | 0.293 | 0.322 | 0.291 | 0.285 | 0.351 | 0.328 | 0.301 | 0.234 | 0.831 | 1.04 | 0.914 | 0.859 | 0.744 | 1.1 | 1.23 | 1.28 | 1.13 | 0.91 | 0.261
NCI-H1355 | 0.715 | 0.804 | 0.943 | 0.756 | 0.674 | 0.723 | 0.735 | 0.718 | 0.719 | 1.2 | 1.31 | 1.28 | 1.2 | 1.27 | 0.841 | 0.961 | 0.921 | 0.923 | 0.983 | 0.712
NCI-H1437 | 0.489 | 0.418 | 0.478 | 0.39 | 0.412 | 1.03 | 1.12 | 1.23 | 1.17 | 0.567 | 0.643 | 0.514 | 0.494 | 0.551 | 1.06 | 1.2 | 1.19 | 1.13 | 1.16 | 1.12
NCI-H1650 | 0.321 | 0.337 | 0.309 | 0.358 | 0.268 | 0.219 | 0.201 | 0.206 | 0.217 | 0.194 | 0.226 | 0.192 | 0.203 | 0.211 | 1.48 | 1.18 | 1.4 | 1.34 | 1.33 | 0.198
NCI-H1651 | 0.389 | 0.506 | 0.59 | 0.462 | 0.527 | 0.758 | 0.766 | 1.06 | 1.14 |  | 1.06 | 0.987 | 0.884 | 0.968 | 0.922 | 1.09 | 1.19 | 1.08 | 1.15 | 0.942
NCI-H1666 | 0.77 | 0.948 | 0.936 | 0.862 | 0.942 | 0.983 |  | 1.07 | 1.12 | 0.867 |  | 1.01 | 0.839 | 0.86 | 1.03 | 0.921 | 1.22 | 0.836 | 0.96 | 1.07
NCI-H1734 | 0.456 | 0.43 | 0.503 | 0.451 | 0.46 | 0.166 | 0.186 | 0.188 | 0.212 | 0.855 | 0.962 | 1.35 | 1.09 | 0.911 | 0.785 | 0.815 | 0.954 | 0.846 | 0.906 | 0.149
